Earlier results on 17 compounds are cited in patent US6927272B2, “Electronic component-use material and electronic component using it” (Matsushita Electric Industrial Co., Ltd., priority 2001, dated 2005).

Like-named read-outs stand apart in the source and are kept apart here.

For this data set the following is noted: room temperature (20-30° C.).

Regarding `CC(C)=CC1C(C(=O)OCc2cccc(Oc3ccccc3)c2)C1(C)C` (stereo not drawn) [phenothrin], the “Vapor Pressure” value is 160,000 nPa.
On to `CC1(C)C(/C=C(\Cl)C(F)(F)F)C1C(=O)OC(C#N)c1cccc(Oc2ccccc2)c1` (stereo not drawn) [λ-cyhalothrin], for which the “Vapor Pressure” value was 200 nPa.
As to `CC1(C)[C@H](C(=O)O[C@H](C#N)c2cccc(Oc3ccccc3)c2)[C@@H]1C(Br)C(Br)(Br)Br` (stereo partly drawn) [tralomethrin], the “Vapor Pressure” value was 0.017 nPa.
Consider `CC1(C)C(C=C(Cl)Cl)C1C(=O)OCc1cccc(Oc2ccccc2)c1` (stereo not drawn) [permethrin], for which the “Vapor Pressure” value is 45,000 nPa.
Consider `CC(C)[C@@H](Nc1ccc(C(F)(F)F)cc1Cl)C(=O)OC(C#N)c1cccc(Oc2ccccc2)c1` (stereo partly drawn) [τ-fulvalinate], for which the “Vapor Pressure” value is listed as 13,000 nPa.
Regarding `CC1(C)[C@H](C(=O)O[C@H](C#N)c2cccc(Oc3ccccc3)c2)[C@@H]1C=C(Br)Br` [deltamethrin], the “Vapor Pressure” value is 2,000 nPa.
`CC(C)C(C(=O)OC(C#N)c1cccc(Oc2ccccc2)c1)c1ccc(Cl)cc1` (stereo not drawn) [fenvalerate]: the “Vapor Pressure” value is listed as 37,000 nPa.
For `CC(C)=CC1C(C(=O)OCc2coc(Cc3ccccc3)c2)C1(C)C` (stereo not drawn) [resmethrin], the “Vapor Pressure” value is on record as 1,500 nPa.
As to `Cc1c(COC(=O)[C@@H]2[C@H](/C=C(\Cl)C(F)(F)F)C2(C)C)cccc1-c1ccccc1` (racemic) [bifenthrin], the “Vapor Pressure” value is given as 24,000 nPa.
For the compound `CC1(C)C(C=C(Cl)Cl)C1C(=O)OC(C#N)c1ccc(F)c(Oc2ccccc2)c1` (stereo not drawn) [β-cyfluthrin], the “Vapor Pressure” value (cis-form) is on record as “cis-form 10/ nPa” and the “Vapor Pressure” value (trans-form) is on record as 90 nPa.
In the case of `CC1(C)C(C=C(Cl)Cl)C1C(=O)OC(C#N)c1cccc(Oc2ccccc2)c1` (stereo not drawn) [cypermethrin], the “Vapor Pressure” value is recorded as 230 nPa.
Turning to `Cc1c(F)c(F)c(COC(=O)[C@@H]2[C@H](/C=C(\Cl)C(F)(F)F)C2(C)C)c(F)c1F` (racemic) [tefluthrin], the “Vapor Pressure” value was 80,000,000 nPa.
With `CCOc1ccc([Si](C)(C)CCCc2ccc(F)c(Oc3ccccc3)c2)cc1` [silafluofen], the “Vapor Pressure” value is 731,500 nPa.
Regarding `CC(C)[C@H](C(=O)OC(C#N)c1cccc(Oc2ccccc2)c1)c1ccc(OC(F)F)cc1` (stereo partly drawn) [flucythrinate], the “Vapor Pressure” value was 1,200 nPa.
With `CC1(C)[C@H](C(=O)O[C@H](C#N)c2cccc(Oc3ccccc3)c2)[C@@H]1/C=C\C(=O)OC(C(F)(F)F)C(F)(F)F` [acrinathrin], the “Vapor Pressure” value is on record as 390 nPa.
Consider `CC(C)=CC1C(C(=O)OC(C#N)c2cccc(Oc3ccccc3)c2)C1(C)C` (stereo not drawn) [cyphenothrin], for which the “Vapor Pressure” value was 400,000 nPa.
As to `CC(C)=CC1C(C(=O)OCN2C(=O)C3=C(CCCC3)C2=O)C1(C)C` (stereo not drawn) [d-tetramethrin], the “Vapor Pressure” value is 320,000 nPa.
